From patent publication US10590078B2, “Sodium channel blockers” (Daewoong Pharmaceutical Co., Ltd., priority 2015, dated 2020) come the findings set out here.

The structures appear in SMILES notation.

The experiment deals with human sodium ion channel 1.7 (hNav1.7) (Homo sapiens, UniProt Q15858). Briefly: Blocking effect against sodium ion channel Nav1.7, IonFlux16 auto patch clamp in hNav1.7 HEK293 cells. The experiment is classed as cell-based. The following applies: hNav1.7 HEK293 cells; inhibition of peak current after 50 seconds treatment; eight concentrations; read-out: IC50. A general note: The patch-clamp technique gives a direct electrical read-out from membranes.
Sequence of human sodium ion channel 1.7 (hNav1.7) (Q15858 whole entry): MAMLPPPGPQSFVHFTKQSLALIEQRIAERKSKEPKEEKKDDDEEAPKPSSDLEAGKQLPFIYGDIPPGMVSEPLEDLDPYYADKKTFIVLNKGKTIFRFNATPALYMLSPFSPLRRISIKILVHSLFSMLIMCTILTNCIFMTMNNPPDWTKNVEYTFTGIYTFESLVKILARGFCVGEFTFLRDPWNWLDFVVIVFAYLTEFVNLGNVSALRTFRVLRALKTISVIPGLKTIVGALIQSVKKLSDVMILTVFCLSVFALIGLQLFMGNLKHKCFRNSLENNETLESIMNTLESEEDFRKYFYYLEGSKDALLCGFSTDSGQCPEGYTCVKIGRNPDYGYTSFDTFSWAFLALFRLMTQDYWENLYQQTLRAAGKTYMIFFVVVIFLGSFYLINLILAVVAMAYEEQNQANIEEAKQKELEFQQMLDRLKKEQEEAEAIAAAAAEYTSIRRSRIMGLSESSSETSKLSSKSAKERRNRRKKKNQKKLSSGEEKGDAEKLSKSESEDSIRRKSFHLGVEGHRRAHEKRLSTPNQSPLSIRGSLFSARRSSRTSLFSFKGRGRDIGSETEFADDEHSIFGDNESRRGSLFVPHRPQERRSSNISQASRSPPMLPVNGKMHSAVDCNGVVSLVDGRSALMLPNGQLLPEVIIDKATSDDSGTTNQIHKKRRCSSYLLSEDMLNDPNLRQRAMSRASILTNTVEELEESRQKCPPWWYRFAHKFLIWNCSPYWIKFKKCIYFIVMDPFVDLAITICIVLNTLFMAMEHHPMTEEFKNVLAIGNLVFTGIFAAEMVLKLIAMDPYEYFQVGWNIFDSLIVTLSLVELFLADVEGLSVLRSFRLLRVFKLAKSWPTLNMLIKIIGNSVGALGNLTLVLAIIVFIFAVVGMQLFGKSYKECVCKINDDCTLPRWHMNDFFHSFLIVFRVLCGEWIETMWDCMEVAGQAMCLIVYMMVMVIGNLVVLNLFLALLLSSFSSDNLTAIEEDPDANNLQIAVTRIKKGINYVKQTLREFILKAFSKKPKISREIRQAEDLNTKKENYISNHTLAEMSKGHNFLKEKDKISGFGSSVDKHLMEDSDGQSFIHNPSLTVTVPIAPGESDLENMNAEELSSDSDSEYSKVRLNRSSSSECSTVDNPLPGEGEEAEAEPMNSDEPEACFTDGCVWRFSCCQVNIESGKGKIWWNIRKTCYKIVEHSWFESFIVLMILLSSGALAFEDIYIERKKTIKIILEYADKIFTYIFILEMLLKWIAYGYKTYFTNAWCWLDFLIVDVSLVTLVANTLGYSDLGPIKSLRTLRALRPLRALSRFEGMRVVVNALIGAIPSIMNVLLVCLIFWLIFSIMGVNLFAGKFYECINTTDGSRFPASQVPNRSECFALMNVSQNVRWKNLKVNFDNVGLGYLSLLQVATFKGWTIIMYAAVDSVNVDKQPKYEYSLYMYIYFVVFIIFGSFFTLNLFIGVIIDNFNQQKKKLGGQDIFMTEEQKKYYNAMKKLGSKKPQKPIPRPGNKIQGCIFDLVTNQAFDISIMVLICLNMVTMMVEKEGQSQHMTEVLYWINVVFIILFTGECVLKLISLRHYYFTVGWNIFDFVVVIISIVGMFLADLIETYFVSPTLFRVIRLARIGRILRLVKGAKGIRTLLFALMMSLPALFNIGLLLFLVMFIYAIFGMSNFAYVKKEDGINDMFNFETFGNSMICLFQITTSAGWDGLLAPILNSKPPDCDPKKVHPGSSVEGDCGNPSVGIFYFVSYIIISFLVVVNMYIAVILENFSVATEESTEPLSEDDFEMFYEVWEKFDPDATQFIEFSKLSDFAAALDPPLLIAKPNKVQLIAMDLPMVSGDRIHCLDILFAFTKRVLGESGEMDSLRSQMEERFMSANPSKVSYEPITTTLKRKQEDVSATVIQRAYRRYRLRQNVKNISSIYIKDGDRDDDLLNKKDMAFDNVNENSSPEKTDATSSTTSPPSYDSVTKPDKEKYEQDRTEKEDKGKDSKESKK
A word on the IC50: it is the midpoint of a concentration-inhibition curve. Consider `CS(=O)(=O)NC(=O)c1cc(Cl)c(-n2cc(-c3ccc(F)cc3F)c3cc(F)cnc32)cc1F` [Example 203, 5-chloro-4-(3-(2,4-difluorophenyl)-5-fluoro-1H-pyrrolo[2,3-b]pyridin-1-yl)-2-fluoro-N-(methylsulfonyl)benzamide], for which the IC50 is 80 nM.
Take `COc1ccc(-c2cn(-c3cc(F)c(C(=O)NS(C)(=O)=O)cc3Cl)c3ncc(Cl)cc23)cc1` [Example 196, 5-chloro-4-(5-chloro-3-(4-methoxyphenyl)-1H-pyrrolo[2,3-b]pyridin-1-yl)-2-fluoro-N-(methylsulfonyl)benzamide]: the IC50 is 130 nM.
With `CC(Oc1ccc2c(c1)c(Cl)nn2-c1cc(F)c(C(=O)NS(C)(=O)=O)cc1Cl)c1ccc(F)cc1` (stereo not shown) [Example 39, 5-chloro-4-(3-chloro-5-(1-(4-fluorophenyl)ethoxy)-1H-indazol-1-yl)-2-fluoro-N-(methylsulfonyl)benzamide] the figure was 280 nM; with `CS(=O)(=O)NC(=O)c1cc(Cl)c(-n2nc(-c3ccccc3C#N)c3cc(Cl)ccc32)cc1F` [Example 60, 5-chloro-4-(5-chloro-3-(2-cyanophenyl)-1H-indazol-1-yl)-2-fluoro-N-(methylsulfonyl)benzamide], over 10000 nM.
To `O=S(=O)(Nc1cscn1)c1cc(Cl)c(-n2nc(-c3cn[nH]c3)c3cc(Cl)ccc32)cc1F` [Example 284, 5-chloro-4-(5-chloro-3-(1H-pyrazol-4-yl)-1H-indazol-1-yl)-2-fluoro-N-(thiazol-4-yl)benzenesulfonamide] belongs over 10000 nM; to `CS(=O)(=O)NC(=O)c1cc(Cl)c(-n2cc(Cl)c3c(Cl)c(O)ccc32)cc1F` [Example 267, 5-chloro-4-(3,4-dichloro-5-hydroxy-1H-indol-1-yl)-2-fluoro-N-(methylsulfonyl)benzamide], over 10000 nM.
With `Cc1ccccc1-c1nn(-c2cc(F)c(C(=O)NS(C)(=O)=O)cc2Cl)c2ccc(F)cc12` [Example 147, 5-chloro-2-fluoro-4-(5-fluoro-3-(o-tolyl)-1H-indazol-1-yl)-N-(methylsulfonyl)benzamide] the figure was 60 nM.
In the case of `CS(=O)(=O)NC(=O)c1cc(Cl)c(-n2nc(-c3ccccc3F)c3cc(Cl)ccc32)cc1F` [Example 53, 5-chloro-4-(5-chloro-3-(2-fluorophenyl)-1H-indazol-1-yl)-2-fluoro-N-(methylsulfonyl)benzamide], the IC50 was determined as 33 nM.
On to `CS(=O)(=O)NC(=O)c1ccc(-n2nc(-c3cccc(C#N)c3)c3cc(F)ccc32)c(C#N)c1` [Example 168, 3-cyano-4-(3-(3-cyanophenyl)-5-fluoro-1H-indazol-1-yl)-N-(methylsulfonyl)benzamide], for which the IC50 was over 10000 nM.
With `CS(=O)(=O)NC(=O)c1ccc(-n2nc(-c3ccc(Cl)cc3F)c3cc(Cl)ccc32)nc1` [Example 128, 6-(5-chloro-3-(4-chloro-2-fluorophenyl)-1H-indazol-1-yl)-N-(methylsulfonyl)nicotinamide] the figure was 1330 nM.
To `CS(=O)(=O)NC(=O)c1cc(Cl)c(-n2nc(N)c3cc(Cl)ccc32)cc1F` [Example 5, 4-(3-amino-5-chloro-1H-indazol-1-yl)-5-chloro-2-fluoro-N-(methylsulfonyl)benzamide] belongs over 10000 nM; to `Cc1ncc(-c2nn(-c3cc(F)c(C(=O)NS(C)(=O)=O)cc3Cl)c3ccc(Cl)cc23)s1` [Example 91, 5-chloro-4-(5-chloro-3-(2-methylthiazol-5-yl)-1H-indazol-1-yl)-2-fluoro-N-(methylsulfonyl)benzamide], 1930 nM; to `O=S(=O)(Nc1ncns1)c1cc(F)c(-n2nc(Cl)c3cc(C(F)(F)F)ccc32)cc1F` [Example 281, 4-(3-chloro-5-(trifluoromethyl)-1H-indazol-1-yl)-2,5-difluoro-N-(1,2,4-thiadiazol-5-yl)benzenesulfonamide], 3000 to 10000 nM.
To `CS(=O)(=O)NC(=O)c1cc(Cl)c(-n2cc(-c3ccc(Cl)cc3)c3cccnc32)cc1F` [Example 224, 5-chloro-4-(3-(4-chlorophenyl)-1H-pyrrolo[2,3-b]pyridin-1-yl)-2-fluoro-N-(methylsulfonyl)benzamide] belongs 280 nM; to `CS(=O)(=O)NC(=O)c1ccc(-n2nc(-c3ccc(Cl)cc3F)c3cc(Cl)ccc32)c(C#N)c1` [Example 100, 4-(5-chloro-3-(4-chloro-2-fluorophenyl)-1H-indazol-1-yl)-3-cyano-N-(methylsulfonyl)benzamide], 279 nM.
Consider `Cc1cccc(-c2cn(-c3cc(F)c(C(=O)NS(C)(=O)=O)cc3Cl)c3ncccc23)c1` [Example 215, 5-chloro-2-fluoro-N-(methylsulfonyl)-4-(3-(m-tolyl)-1H-pyrrolo[2,3-b]pyridin-1-yl)benzamide], for which the IC50 came to 210 nM.
With `CS(=O)(=O)NC(=O)c1cc(Cl)c(-n2cc(-c3cccc(Cl)c3F)c3cccnc32)cc1F` [Example 222, 5-chloro-4-(3-(3-chloro-2-fluorophenyl)-1H-pyrrolo[2,3-b]pyridin-1-yl)-2-fluoro-N-(methylsulfonyl)benzamide], the IC50 stood at 410 nM.
To `CS(=O)(=O)NC(=O)c1cc(Cl)c(-n2nc(Cl)c3cc(OCc4cccc(F)c4)ccc32)cc1F` [Example 38, 5-chloro-4-(3-chloro-5-((3-fluorobenzyl)oxy)-1H-indazol-1-yl)-2-fluoro-N-(methylsulfonyl)benzamide] belongs 98 nM; to `CS(=O)(=O)NC(=O)c1ccc(-n2nc(Cl)c3cc(O)ccc32)cc1` [Example 12, 4-(3-chloro-5-hydroxy-1H-indazol-1-yl)-N-(methylsulfonyl)benzamide], over 10000 nM; to `CS(=O)(=O)NC(=O)c1cc(Cl)c(-n2cc(-c3ccccc3C(F)(F)F)c3cc(Cl)cnc32)cc1F` [Example 193, 5-chloro-4-(5-chloro-3-(2-(trifluoromethyl)phenyl)-1H-pyrrolo[2,3-b]pyridin-1-yl)-2-fluoro-N-(methylsulfonyl)benzamide], 100 nM.
With `CS(=O)(=O)NC(=O)c1cc(Cl)c(-n2nc(-c3ccccc3F)c3cc(F)ccc32)cc1F` [Example 143, 5-chloro-2-fluoro-4-(5-fluoro-3-(2-fluorophenyl)-1H-indazol-1-yl)-N-(methylsulfonyl)benzamide] the figure was 120 nM; with `CS(=O)(=O)NC(=O)c1ccc(-n2nc(Cl)c3cc(Cl)ccc32)c(Cl)c1` [Example 8, 3-chloro-4-(3,5-dichloro-1H-indazol-1-yl)-N-(methylsulfonyl)benzamide], 880 nM.
Consider `CC(=O)Nc1nn(-c2cc(F)c(C(=O)NS(C)(=O)=O)cc2Cl)c2ccc(Cl)cc12` [Example 6, 4-(3-acetamido-5-chloro-1H-indazol-1-yl)-5-chloro-2-fluoro-N-(methylsulfonyl)benzamide], for which the IC50 was over 10000 nM.
With `CS(=O)(=O)NC(=O)c1cc(Cl)c(-n2nc(-c3cc(Cl)ccc3F)c3cc(Cl)ccc32)cc1F` [Example 69, 5-chloro-4-(5-chloro-3-(5-chloro-2-fluorophenyl)-1H-indazol-1-yl)-2-fluoro-N-(methylsulfonyl)benzamide] the figure was 37 nM; with `CS(=O)(=O)NC(=O)c1ccc(-n2cc(-c3ccc(Cl)cc3)c3cc(Cl)ccc32)nc1` [Example 274, 6-(5-chloro-3-(4-chlorophenyl)-1H-indol-1-yl)-N-(methylsulfonyl)nicotinamide], 5960 nM.
Consider `CS(=O)(=O)NC(=O)c1cc(Cl)c(-n2nc(-c3ccc(Cl)cc3F)c3cc(Cl)ccc32)cc1F` [Example 66, 5-chloro-4-(5-chloro-3-(4-chloro-2-fluorophenyl)-1H-indazol-1-yl)-2-fluoro-N-(methylsulfonyl)benzamide], for which the IC50 is 16 nM.
Consider `CS(=O)(=O)NC(=O)c1cc(Cl)c(-n2cc(-c3ccccc3F)c3cccnc32)cc1F` [Example 213, 5-chloro-2-fluoro-4-(3-(2-fluorophenyl)-1H-pyrrolo[2,3-b]pyridin-1-yl)-N-(methylsulfonyl)benzamide], for which the IC50 turned out to be 720 nM.
To `CS(=O)(=O)NC(=O)c1cc(Cl)c(-n2nc(C#N)c3cc(Br)ccc32)cc1F` [Example 22, 4-(5-bromo-3-cyano-1H-indazol-1-yl)-5-chloro-2-fluoro-N-(methylsulfonyl)benzamide] belongs 966 nM; to `CS(=O)(=O)NC(=O)c1cc(Cl)c(-n2nc(/C=C/c3ccccc3)c3cc(Cl)ccc32)cc1F` [Example 133, (E)-5-chloro-4-(5-chloro-3-styryl-1H-indazol-1-yl)-2-fluoro-N-(methylsulfonyl)benzamide], 120 nM; to `CS(=O)(=O)NC(=O)c1cc(Cl)c(-n2nc(-c3ccc(F)cc3)c3cc(F)ccc32)cc1F` [Example 153, 5-chloro-2-fluoro-4-(5-fluoro-3-(4-fluorophenyl)-1H-indazol-1-yl)-N-(methylsulfonyl)benzamide], 200 nM.
To `CS(=O)(=O)NC(=O)c1ccc(-n2nc(-c3cccc(C(F)(F)F)c3)c3cc(Cl)ccc32)c(C#N)c1` [Example 98, 4-(5-chloro-3-(3-(trifluoromethyl)phenyl)-1H-indazol-1-yl)-3-cyano-N-(methylsulfonyl)benzamide] belongs 887 nM; to `COc1ccccc1-c1nn(-c2ccc(C(=O)NS(C)(=O)=O)cc2F)c2ccc(Cl)cc12` [Example 117, 4-(5-chloro-3-(2-methoxyphenyl)-1H-indazol-1-yl)-3-fluoro-N-(methylsulfonyl)benzamide], 640 nM.
Take `CS(=O)(=O)NC(=O)c1cc(Cl)c(-n2nc(-c3cc(F)cc(Cl)c3)c3cc(F)ccc32)cc1F` [Example 157, 5-chloro-4-(3-(3-chloro-5-fluorophenyl)-5-fluoro-1H-indazol-1-yl)-2-fluoro-N-(methylsulfonyl)benzamide]: the IC50 was determined as 100 nM.
With `CS(=O)(=O)NC(=O)c1cc(Cl)c(-n2cc(-c3ccc(Cl)cc3F)c3cc(Cl)cnc32)cc1F` [Example 189, 5-chloro-4-(5-chloro-3-(4-chloro-2-fluorophenyl)-1H-pyrrolo[2,3-b]pyridin-1-yl)-2-fluoro-N-(methylsulfonyl)benzamide] the figure was 110 nM.
